Results reported in ChEMBL document CHEMBL5608163, “Structure modification of anoplin for fighting resistant bacteria” (Eur J Med Chem, 2024).
Values after ≈ are worked out from the molar mass of the structure shown. Numbered stars: 1 amine (or outer) side, 2 acyl side, 3 side chain; on linkers, the order of the positions; unused ones are H or OH. Square brackets hold non-standard residues; d marks the D form. Peptide text beside a SMILES is read from it. * marks the point of attachment. N(1-naphthylmethyl)Gly = O=C(O)CNCc1cccc2ccccc12; X3 = O=C(CN(CC(c1ccccc1)c1ccccc1)[*:1])[*:2]; Pentadecanoyl = CCCCCCCCCCCCCCC(=O)*; NMeR = CN[C@@H](CCCNC(=N)N)C(=O)O; Tridecanoyl = CCCCCCCCCCCCC(=O)*; Undecanoyl = CCCCCCCCCCC(=O)*; NMeK = CN[C@@H](CCCCN)C(=O)O; Nonanoyl = CCCCCCCCC(=O)*

Key:
[1] = Hemolytic activity in mouse erythrocyte incubated for 1 hr by microplate reader analysis; type: toxicity, cell-based; settings: erythrocytes
[2] = test system: Bacillus subtilis; test: Antibacterial activity against Bacillus subtilis ATCC 23857 assessed as reduction in bacterial cell growth measured for 18 hrs by Mueller-Hinton broth based two-fold serial dilution method; type: functional
[3] = Hemolytic activity in mouse Red blood cells incubated for 1 hr by microplate reader assay; type: toxicity, cell-based, Erythrocyte; settings: red blood cells
[4] = test system: Klebsiella pneumoniae; test: Antibacterial activity against Klebsiella pneumoniae ATCC 700603 assessed as reduction in bacterial cell growth measured for 18 hrs by Mueller-Hinton broth based two-fold serial dilution method; type: functional
[5] = test system: Escherichia coli; test: Antibacterial activity against Escherichia coli ATCC 25922 assessed as reduction in bacterial cell growth measured for 18 hrs by Mueller-Hinton broth based two-fold serial dilution method; type: functional
[6] = test system: Pseudomonas aeruginosa; test: Antibacterial activity against Pseudomonas aeruginosa ATCC 27853 assessed as reduction in bacterial cell growth measured for 18 hrs by Mueller-Hinton broth based two-fold serial dilution method; type: functional
[7] = test system: Staphylococcus aureus; test: Antibacterial activity against Staphylococcus aureus ATCC 25923 assessed as reduction in bacterial cell growth measured for 18 hrs by Mueller-Hinton broth based two-fold serial dilution method; type: functional
[8] = test system: Erythrocyte; test: Hemolytic activity in mouse RBC; type: toxicity, cell-based
[9] = test system: Staphylococcus aureus; test: Antimicrobial activity against Staphylococcus aureus assessed as reduction in microbial growth by broth microdilution method; type: functional
[10] = test system: Escherichia coli; test: Antimicrobial activity against Escherichia coli assessed as reduction in microbial growth by broth micro-dilution method; type: functional
[11] = test system: Escherichia coli; test: Antibacterial activity against Escherichia coli ATCC 25922 assessed as reduction in bacterial growth measured after 24 hrs by Mueller-Hinton broth based two-fold serial dilution method; type: functional
[12] = test system: Staphylococcus aureus; test: Antibacterial activity against Staphylococcus aureus ATCC 25923 assessed as reduction in bacterial growth measured after 24 hrs by Mueller-Hinton broth based two-fold serial dilution method; type: functional

CCCCCCCCCCCCCCC(=O)NCC(=O)N[C@@H](CC(C)C)C(=O)N[C@@H](CC(C)C)C(=O)N[C@@H](CCCCN)C(=O)N(C)[C@@H](CCCNC(=N)N)C(=O)N[C@H](C(=O)N(C)[C@@H](CCCCN)C(=O)N[C@H](C(=O)N[C@@H](CC(C)C)C(=O)N[C@@H](CC(C)C)C(N)=O)[C@@H](C)O)[C@@H](C)CC (Pentadecanoyl-GLLK[NMeR]I[NMeK]TLL-NH2)
HC50 at 1 h [1]: 64 µM | MIC [2]: 8 µM (≈ 11.2 µg/mL) | HC50 at 1 h [3]: 64 µM | MIC [4]: 32 µM (≈ 45 µg/mL) | MIC [5]: 16 µM (≈ 22.5 µg/mL) | MIC [6]: 16 µM (≈ 22.5 µg/mL) | MIC [7]: 16 µM (≈ 22.5 µg/mL)

CCCCCCCCC(=O)NCC(=O)N[C@@H](CC(C)C)C(=O)N[C@@H](CC(C)C)C(=O)N(C)[C@@H](CCCCN)C(=O)N[C@@H](CCCNC(=N)N)C(=O)N[C@H](C(=O)N(C)[C@@H](CCCCN)C(=O)N[C@H](C(=O)N[C@@H](CC(C)C)C(=O)N[C@@H](CC(C)C)C(N)=O)[C@@H](C)O)[C@@H](C)CC (Nonanoyl-GLL[NMeK]RI[NMeK]TLL-NH2)
HC50 at 1 h [1]: > 256 µM | MIC [2]: 16 µM (≈ 21.1 µg/mL) | HC50 at 1 h [3]: > 256 µM | MIC [4]: > 128 µM | MIC [5]: 128 µM (≈ 169 µg/mL) | MIC [6]: 32 µM (≈ 42.3 µg/mL) | MIC [7]: 128 µM (≈ 169 µg/mL)

CCCCCCCCCCC(=O)NCC(=O)N[C@@H](CC(C)C)C(=O)N[C@@H](CC(C)C)C(=O)N(C)[C@@H](CCCCN)C(=O)N[C@@H](CCCNC(=N)N)C(=O)N[C@H](C(=O)N(C)[C@@H](CCCCN)C(=O)N[C@H](C(=O)N[C@@H](CC(C)C)C(=O)N[C@@H](CC(C)C)C(N)=O)[C@@H](C)O)[C@@H](C)CC (Undecanoyl-GLL[NMeK]RI[NMeK]TLL-NH2)
HC50 at 1 h [1]: > 256 µM | MIC [2]: 4 µM (≈ 5.4 µg/mL) | HC50 at 1 h [3]: > 256 µM | MIC [4]: > 128 µM | MIC [5]: 32 µM (≈ 43.2 µg/mL) | MIC [6]: 8 µM (≈ 10.8 µg/mL) | MIC [7]: 32 µM (≈ 43.2 µg/mL)

CCCCCCCCCCC(=O)NCC(=O)N[C@@H](CC(C)C)C(=O)N[C@@H](CC(C)C)C(=O)N[C@@H](CCCCN)C(=O)N(C)[C@@H](CCCNC(=N)N)C(=O)N[C@H](C(=O)N(C)[C@@H](CCCCN)C(=O)N[C@H](C(=O)N[C@@H](CC(C)C)C(=O)N[C@@H](CC(C)C)C(N)=O)[C@@H](C)O)[C@@H](C)CC (Undecanoyl-GLLK[NMeR]I[NMeK]TLL-NH2)
HC50 at 1 h [1]: > 256 µM | MIC [2]: 8 µM (≈ 10.8 µg/mL) | HC50 at 1 h [3]: > 256 µM | MIC [4]: 128 µM (≈ 173 µg/mL) | MIC [5]: 16 µM (≈ 21.6 µg/mL) | MIC [6]: 8 µM (≈ 10.8 µg/mL) | MIC [7]: 32 µM (≈ 43.2 µg/mL)

CCCCCCCCCCCCCCC(=O)NCC(=O)N[C@@H](CC(C)C)C(=O)N[C@@H](CC(C)C)C(=O)N(C)[C@@H](CCCCN)C(=O)N[C@@H](CCCNC(=N)N)C(=O)N[C@H](C(=O)N(C)[C@@H](CCCCN)C(=O)N[C@H](C(=O)N[C@@H](CC(C)C)C(=O)N[C@@H](CC(C)C)C(N)=O)[C@@H](C)O)[C@@H](C)CC (Pentadecanoyl-GLL[NMeK]RI[NMeK]TLL-NH2)
HC50 at 1 h [1]: 64 µM | MIC [2]: 8 µM (≈ 11.2 µg/mL) | HC50 at 1 h [3]: 64 µM | MIC [4]: 32 µM (≈ 45 µg/mL) | MIC [5]: 16 µM (≈ 22.5 µg/mL) | MIC [6]: 16 µM (≈ 22.5 µg/mL) | MIC [7]: 8 µM (≈ 11.2 µg/mL)

CC[C@H](C)[C@H](NC(=O)[C@H](CCCNC(=N)N)NC(=O)[C@H](CCCCN)NC(=O)[C@H](CC(C)C)NC(=O)[C@H](CC(C)C)NC(=O)CNCC(c1ccccc1)c1ccccc1)C(=O)N[C@@H](CCCCN)C(=O)N[C@H](C(=O)N[C@@H](CC(C)C)C(=O)N[C@@H](CC(C)C)C(N)=O)[C@@H](C)O (H-[X3]LLKRIKTLL-NH2)
HC10 [8]: > 50 µM | MIC [9]: 25 µM | MIC [10]: 12.5 µM

CCCCCCCCCCCCC(=O)NCC(=O)N[C@@H](CC(C)C)C(=O)N[C@@H](CC(C)C)C(=O)N(C)[C@@H](CCCCN)C(=O)N[C@@H](CCCNC(=N)N)C(=O)N[C@H](C(=O)N(C)[C@@H](CCCCN)C(=O)N[C@H](C(=O)N[C@@H](CC(C)C)C(=O)N[C@@H](CC(C)C)C(N)=O)[C@@H](C)O)[C@@H](C)CC (Tridecanoyl-GLL[NMeK]RI[NMeK]TLL-NH2)
HC50 at 1 h [1]: 64 µM | MIC [2]: 4 µM (≈ 5.51 µg/mL) | HC50 at 1 h [3]: 64 µM | MIC [4]: 64 µM (≈ 88.2 µg/mL) | MIC [5]: 16 µM (≈ 22 µg/mL) | MIC [6]: 8 µM (≈ 11 µg/mL) | MIC [7]: 8 µM (≈ 11 µg/mL)

CC[C@H](C)[C@H](NC(=O)[C@H](CCCNC(=N)N)NC(=O)[C@H](CCCCN)NC(=O)[C@H](CC(C)C)NC(=O)[C@H](CC(C)C)NC(=O)CNCc1cccc2ccccc12)C(=O)N[C@@H](CCCCN)C(=O)N[C@H](C(=O)N[C@@H](CC(C)C)C(=O)N[C@@H](CC(C)C)C(N)=O)[C@@H](C)O (H-[N(1-naphthylmethyl)Gly]LLKRIKTLL-NH2)
HC10 [8]: > 50 µM | MIC [9]: 25 µM | MIC [10]: 12.5 µM

CC[C@H](C)[C@H](NC(=O)[C@H](CCCNC(=N)N)NC(=O)[C@H](CCCCN)NC(=O)[C@@H](N)CC(C)C)C(=O)N[C@@H](CCCCN)C(=O)N[C@H](C(=O)N[C@@H](CC(C)C)C(=O)N[C@@H](CC(C)C)C(N)=O)[C@@H](C)O (H-LKRIKTLL-NH2)
MIC [11]: 31.6 µM (≈ 31 µg/mL) | MIC [12]: > 31.6 µM

CC[C@H](C)[C@H](NC(=O)[C@H](CCCNC(=N)N)NC(=O)[C@H](CCCCN)NC(=O)[C@H](CC(C)C)NC(=O)[C@@H](N)CC(C)C)C(=O)N[C@@H](CCCCN)C(=O)N[C@H](C(=O)N[C@@H](CC(C)C)C(=O)N[C@@H](CC(C)C)C(N)=O)[C@@H](C)O (H-LLKRIKTLL-NH2)
MIC [11]: 54.7 µM (≈ 60 µg/mL) | MIC [12]: > 54.7 µM
